This is an account of results in patent publication US7728146B2, “Enzyme inhibitors” (Probiodrug AG, priority 2006, dated 2010).

SMILES strings stand for the structures.

The target of one test is DP IV (Homo sapiens, UniProt P27487). Nature of the test: DP IV inhibition IC50, parallel-synthesis compounds tested directly following synthesis (without purification). The format is biochemical. The settings on record: DP IV inhibition; compounds of formula (Ib) from parallel synthesis, tested directly following synthesis (without purification); read-out: IC50. Also noted: IC50 DP4; other: tested directly following parallel synthesis, without purification; compounds of formula (Ib) from parallel synthesis, tested directly following synthesis. A digest of the protocol: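 IC50 came from a 4-parameter fit of residual activity (linear 405 nm slopes for pNA release over ~18 min, relative to solvent-only wells). Gly-Pro-pNA was the substrate, cleaved by porcine kidney or recombinant human DP IV at room temperature in HEPES with 5% DMSO; duplicate 1:2 series started at 100 μM final.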
On to `CCCn1cnc(-c2ccc(Cl)cc2Cl)c1CN` [86b, C-[5-(2,4-Dichloro-phenyl)-3-propyl-3H-imidazol-4-yl]-methylamine], for which the IC50 was 17.2 µM. Still for that read-out and setting: the same measure for `C[C@H](N)c1c(-c2ccc(Cl)cc2Cl)ncn1CCc1c[nH]c2ccccc12` [103b, (S)-1-{5-(2,4-Dichloro-phenyl)-3-[2-(1H-indol-3-yl)-ethyl]-3H-imidazol-4-yl}-ethylamine]: 44.2 µM; for `NCc1c(-c2ccc(Cl)cc2Cl)ncn1Cc1ccc(Cl)cc1` [82b, C-[3-(4-Chloro-benzyl)-5-(2,4-dichloro-phenyl)-3H-imidazol-4-yl]-methylamine]: 15.4 µM. On the same count and under the same terms, to `NCc1c(-c2ccc(Cl)cc2Cl)ncn1Cc1cccc(C(F)(F)F)c1F` [50b, C-[5-(2,4-Dichloro-phenyl)-3-(2-fluoro-3-trifluoromethyl-benzyl)-3H-imidazol-4-yl]-methylamine] belongs 15.4 µM; to `CC(N)c1c(-c2ccc(Cl)cc2Cl)ncn1CCCN1CCCC1=O` (stereo not shown) [22b, 1-{3-[5-(1-Amino-ethyl)-4-(2,4-dichloro-phenyl)-imidazol-1-yl]-propyl}-pyrrolidin-2-one], 30.7 µM. In the case of `NCCc1c(-c2ccc(Cl)cc2Cl)ncn1CCNc1ccc([N+](=O)[O-])cn1` [79b, {2-[5-(2-Amino-ethyl)-4-(2,4-dichloro-phenyl)-imidazol-1-yl]-ethyl}-(5-nitro-pyridin-2-yl)-amine], the half-maximal inhibitory concentration (IC50) was found to be 16.3 µM. The same measure, in the same setting: to `NCCCc1c(-c2ccc(Cl)cc2Cl)ncn1Cc1cc(Br)ccc1F` [30b, 3-[3-(5-Bromo-2-fluoro-benzyl)-5-(2,4-dichloro-phenyl)-3H-imidazol-4-yl]-propylamine] belongs 17.2 µM. With `CC(C)N(CCn1cnc(-c2ccc(Cl)cc2Cl)c1CN)C(C)C` [6b, {2-[5-Aminomethyl-4-(2,4-dichloro-phenyl)-imidazol-1-yl]-ethyl}-diisopropyl-amine], the half-inhibitory concentration (IC50) stood at 10.9 µM. On the same count and under the same terms, the same measure for `NCc1c(-c2ccc(Cl)cc2Cl)ncn1CCC1=CCCCC1` [65b, C-[3-(2-Cyclohex-1-enyl-ethyl)-5-(2,4-dichloro-phenyl)-3H-imidazol-4-yl]-methylamine]: 2.8 µM; for `CC(N)c1c(-c2ccc(Cl)cc2Cl)ncn1Cc1ccc(F)c(F)c1` (stereo not shown) [68b, 1-[5-(2,4-Dichloro-phenyl)-3-(3,4-difluoro-benzyl)-3H-imidazol-4-yl]-ethylamine]: 26.2 µM; for `C[C@H](N)c1c(-c2ccc(Cl)cc2Cl)ncn1CCC(c1ccccc1)c1ccccc1` [88b, (S)-1-[5-(2,4-Dichloro-phenyl)-3-(3,3-diphenyl-propyl)-3H-imidazol-4-yl]-ethylamine]: 28 µM. On to `C[C@H](N)c1c(-c2ccc(Cl)cc2Cl)ncn1CCc1c[nH]c2cc(F)ccc12` [110b, (S)-1-{5-(2,4-Dichloro-phenyl)-3-[2-(6-fluoro-1H-indol-3-yl)-ethyl]-3H-imidazol-4-yl}-ethylamine], for which the IC50 is 42.4 µM.

In the case of `NCc1c(-c2ccc(Cl)cc2Cl)ncn1Cc1ccc(F)cc1F` [Example 54b, C-[5-(2,4-dichloro-phenyl)-3-(2,4-difluoro-benzyl)-3H-imidazol-4-yl]-methylamine], the IC50 was 4.6 µM. The same measure, in the same setting: to `NCCc1c(-c2ccc(Cl)cc2Cl)ncn1CCc1cccc(Cl)c1` [37b, 2-[3-[2-(3-Chloro-phenyl)-ethyl]-5-(2,4-dichloro-phenyl)-3H-imidazol-4-yl]-ethylamine] belongs 48.7 µM; to `Cc1[nH]ncc1CCCn1cnc(-c2ccc(Cl)cc2Cl)c1CN` [87b, C-{5-(2,4-Dichloro-phenyl)-3-[3-(5-methyl-1H-pyrazol-4-yl)-propyl]-3H-imidazol-4-yl}-methylamine], 8.2 µM.

For `CC(N)c1c(-c2ccc(Cl)cc2Cl)ncn1Cc1ccccn1` (stereo not shown) [96b, 1-[5-(2,4-Dichloro-phenyl)-3-pyridin-2-ylmethyl-3H-imidazol-4-yl]-ethylamine], the IC50 amounted to 14.5 µM. Still for that read-out and setting: the same measure for `CC(N)c1c(-c2ccc(Cl)cc2Cl)ncn1CCCCc1ccccc1` (stereo not shown) [106b, 1-[5-(2,4-Dichloro-phenyl)-3-(4-phenyl-butyl)-3H-imidazol-4-yl]-ethylamine]: 28 µM; for `CCCCCCn1cnc(-c2ccc(Cl)cc2Cl)c1C(C)N` (stereo not shown) [61b, 1-[5-(2,4-Dichloro-phenyl)-3-hexyl-3H-imidazol-4-yl]-ethylamine]: 40.6 µM.

For `NCc1c(-c2ccc(Cl)cc2Cl)ncn1CCCN1CCCC1=O` [29b, 1-{3-[5-Aminomethyl-4-(2,4-dichloro-phenyl)-imidazol-1-yl]-propyl}-pyrrolidin-2-one], the IC50 came to 22.6 µM. The same measure, in the same setting: to `NCCCc1c(-c2ccc(Cl)cc2Cl)ncn1CCc1ccccc1Cl` [90b, 3-[3-[2-(2-Chloro-phenyl)-ethyl]-5-(2,4-dichloro-phenyl)-3H-imidazol-4-yl]-propylamine] belongs 14.5 µM; to `Clc1ccc(-c2ncn(CCc3ccccc3Cl)c2C2CNC2)c(Cl)c1` [117b, 5-Azetidin-3-yl-1-[2-(2-chloro-phenyl)-ethyl]-4-(2,4-dichloro-phenyl)-1H-imidazole], 39.7 µM; to `COCCn1cnc(-c2ccc(Cl)cc2Cl)c1CN` [60b, C-[5-(2,4-Dichloro-phenyl)-3-(2-methoxy-ethyl)-3H-imidazol-4-yl]-methylamine], 20.8 µM. Same read-out and setting: the same measure for `NCc1c(-c2ccc(Cl)cc2Cl)ncn1Cc1cc(F)ccc1F` [119b, C-[5-(2,4-Dichloro-phenyl)-3-(2,5-difluoro-benzyl)-3H-imidazol-4-yl]-methylamine]: 2.8 µM; for `NCc1c(-c2ccc(Cl)cc2Cl)ncn1Cc1ccc(Cl)cc1Cl` [93b, C-[3-(2,4-Dichloro-benzyl)-5-(2,4-dichloro-phenyl)-3H-imidazol-4-yl]-methylamine]: 35.2 µM; for `NCc1c(-c2ccc(Cl)cc2Cl)ncn1CCCNC1CCCCC1` [19b, {3-[5-Aminomethyl-4-(2,4-dichloro-phenyl)-imidazol-1-yl]-propyl}-cyclohexyl-amine]: 45.1 µM.

Still in this test, the particulars now being: tested directly following parallel synthesis, without purification; read-out: IC50 DP4.
For the compound `NCc1c(-c2ccc(F)cc2Cl)ncn1Cc1cccc(F)c1` [Example 10a, C-[5-(2-Chloro-4-fluoro-phenyl)-3-(3-fluoro-benzyl)-3H-imid-azol-4-yl]-methyl-amine], the IC50 turned out to be 14.5 µM. Still for that read-out and setting: to `NCc1c(-c2ccc(F)cc2Cl)ncn1Cc1ccccn1` [Example 30a, C-[5-(2-Chloro-4-fluoro-phenyl)-3-pyri-din-2-yl-methyl-3H-imid-azol-4-yl]-methyl-amine] belongs 25.3 µM; to `NCc1c(-c2ccc(Cl)cc2Cl)ncn1Cc1ccc(F)cc1` [Example 36a, C-[5-(2,4-Dichloro-phenyl)-3-(4-fluoro-benzyl)-3H-imid-azol-4-yl]-methyl-amine], 0.1 µM. Same read-out and setting: the same measure for `NCc1c(-c2ccc(F)cc2F)ncn1Cc1ccc(F)cc1F` [Example 76a, C-[3-(2,4-Difluoro-benzyl)-5-(2,4-difluoro-phenyl)-3H-imid-azol-4-yl]-methyl-amine]: 40.6 µM. Same read-out and setting: the same measure for `NCc1c(-c2ccc(Cl)cc2Cl)ncn1Cc1cccc(Cl)c1Cl` [Example 52a, C-[3-(2,3-Dichloro-benzyl)-5-(2,4-dichloro-phenyl)-3H-imid-azol-4-yl]-methyl-amine]: 2.8 µM; for `NCc1c(-c2ccc(F)cc2Cl)ncn1Cc1cc(Br)ccc1F` [Example 12a, C-[3-(5-Bromo-2-fluoro-benzyl)-5-(2-chloro-4-fluoro-phenyl)-3H-imid-azol-4-yl]-methyl-amine]: 32.5 µM; for `NCc1c(-c2ccc(F)cc2Cl)ncn1Cc1ccc(F)c(F)c1` [Example 17a, C-[5-(2-Chloro-4-fluoro-phenyl)-3-(3,4-difluoro-benzyl)-3H-imid-azol-4-yl]-methyl-amine]: 19 µM. Take `NCc1c(-c2ccc(F)cc2F)ncn1Cc1cccc(C(F)(F)F)c1` [Example 75a, C-[5-(2,4-Difluoro-phenyl)-3-(3-tri-fluoromethyl-benzyl)-3H-imid-azol-4-yl]-methyl-amine]: the half-maximal inhibitory concentration (IC50) was 28.9 µM. On to `NCc1c(-c2ccc(Cl)cc2Cl)ncn1Cc1ccc(F)c(F)c1` [Example 49a, C-[5-(2,4-Dichloro-phenyl)-3-(3,4-difluoro-benzyl)-3H-imid-azol-4-yl]-methyl-amine], for which the IC50 is 0.1 µM. On the same count and under the same terms, the same measure for `NCc1c(-c2ccc(F)cc2F)ncn1Cc1ccccc1` [Example 80a, C-[3-Benzyl-5-(2,4-di-fluoro-phenyl)-3H-imid-azol-4-yl]-methyl-amine]: 19.9 µM.

Take `Cc1ccc(Cn2cnc(-c3ccc(F)cc3Cl)c2CN)o1` [Example 4a, C-[5-(2-Chloro-4-fluo-ro-phenyl)-3-(5-meth-yl-furan-2-yl-methyl)-3H-imid-azol-4-yl]-methyl-amine]: the IC50 worked out at 34.3 µM. Still for that read-out and setting: to `NCc1c(-c2ccc(Cl)cc2Cl)ncn1Cc1ccccc1F` [Example 62a, C-[5-(2,4-Dichloro-phenyl)-3-(2-fluoro-benzyl)-3H-imid-azol-4-yl]-methyl-amine] belongs 0.1 µM. `NCc1c(-c2ccc(F)cc2F)ncn1Cc1ccc(F)cc1Cl` [Example 87a, C-[3-(2-Chloro-4-fluoro-benzyl)-5-(2,4-difluoro-phenyl)-3H-imid-azol-4-yl]-methyl-amine]: the IC50 was 25.3 µM.

Turning to `NCc1c(-c2ccc(Cl)cc2Cl)ncn1Cc1ccc(F)cc1Cl` [Example 63a, C-[3-(2-Chloro-4-fluoro-benzyl)-5-(2,4-di-chloro-phenyl)-3H-imid-azol-4-yl]-methyl-amine], the IC50 is 1.9 µM. Same read-out and setting: the same measure for `NCc1c(-c2ccc(F)cc2F)ncn1Cc1ccccc1OC(F)(F)F` [Example 84a, C-[5-(2,4-Difluoro-phenyl)-3-(2-trifluoromethoxy-benzyl)-3H-imidazol-4-yl]-methylamine]: 9.1 µM.

The term IC50 denotes the concentration that inhibits the measured activity by half.
